Data published in patent US11542263B2 (NeuroCycle Therapeutics, Inc., priority 2018, dated 2023).

Assay: Intrinsic dissolution rate in SGF
Assay type: physicochemical
Conditions: 37° C., 100 rpm, linear scope within 2 to 120 min
Description: About 100 mg of Free Base Polymorphic Form A or Phosphate Polymorphic Form A was weighed into the intrinsic dissolution apparatus and the sample compressed for 1 minute with a compression force of ˜4 MPa to form a compacted pellet within the stainless-steel die. All loose powder was removed from the surface of the die. The intrinsic dissolution shaft was connected with the stainless-steel die and tightened so only one surface of the pellet was exposed (surface area=0.496 cm^2). The shaft in the spindle was adjusted to ensure the exposed surface of the compacted tablet was ˜3.8 cm from the bottom of the vessel when lowered. The temperature of chamber water was set at 37° C.±0.5° C., the shaft rotation at 100 rpm and the sampling time points at 2, 5, 10, 15, 30, 45, 60, 120 min. SGF was used as dissolution medium (900 mL). At each time point, solution samples were filtered, and the supernatant was analyzed by HPLC-UV.

intrinsic dissolution rate: 0.184 mg cm^−2 min^−1
Compound: CC(C)(O)c1cnn2c(-c3ccc(F)c(-c4c(F)cccc4C#N)c3)cnc2n1.O=P(O)(O)O [Phosphate Polymorphic Form A, 2′,6-difluoro-5′-[3-(1-hydroxy-1-methylethyl)-imidazo[1,2-b][1,2,4]triazin-7-yl]biphenyl-2-carbonitrile]
